Measurements reported in article PMC2939729 (Cancer cell, 2010).

Biological target: BMK1 (Homo sapiens, UniProt Q13164)
Assay: in vitro kinase assay of BMK1 immunoprecipitated from HEK293 cells
Format: biochemical
Conditions: BMK1 immunoprecipitated from HEK293 co-transfected with MEK5D and BMK1

Chain of BMK1 (Q13164 whole entry, species assumed): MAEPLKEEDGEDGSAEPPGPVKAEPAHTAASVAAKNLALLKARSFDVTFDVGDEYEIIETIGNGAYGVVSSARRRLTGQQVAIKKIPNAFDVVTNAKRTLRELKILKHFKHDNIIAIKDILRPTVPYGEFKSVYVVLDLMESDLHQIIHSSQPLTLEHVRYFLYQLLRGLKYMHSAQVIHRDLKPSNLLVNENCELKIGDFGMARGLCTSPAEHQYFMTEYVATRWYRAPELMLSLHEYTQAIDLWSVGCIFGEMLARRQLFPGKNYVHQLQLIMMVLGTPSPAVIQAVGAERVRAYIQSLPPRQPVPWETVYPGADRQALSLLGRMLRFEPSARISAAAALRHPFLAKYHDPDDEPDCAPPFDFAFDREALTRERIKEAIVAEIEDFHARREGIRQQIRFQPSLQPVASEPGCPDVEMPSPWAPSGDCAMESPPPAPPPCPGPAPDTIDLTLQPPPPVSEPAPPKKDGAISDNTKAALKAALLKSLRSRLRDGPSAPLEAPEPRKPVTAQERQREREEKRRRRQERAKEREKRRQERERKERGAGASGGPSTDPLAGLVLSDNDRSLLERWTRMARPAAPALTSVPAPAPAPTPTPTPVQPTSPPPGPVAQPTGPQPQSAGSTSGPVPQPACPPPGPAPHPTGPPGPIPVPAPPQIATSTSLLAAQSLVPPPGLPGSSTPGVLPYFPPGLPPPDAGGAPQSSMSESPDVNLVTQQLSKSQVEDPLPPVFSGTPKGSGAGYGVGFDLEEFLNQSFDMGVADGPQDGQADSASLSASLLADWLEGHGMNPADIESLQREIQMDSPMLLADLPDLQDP

CCOc1cc(N2CCC(O)CC2)ccc1Nc1ncc2c(n1)N(C)c1ccccc1C(=O)N2C [XMD8-92]
BMK1 activity in in vitro kinase assays: significantly reduced
